Experimental data from patent US20220306695A1, “COMPSTATIN ANALOGUES AND THEIR MEDICAL USES” (priority 2019, published 2022).
Read-outs that look alike come from different tables or passages of the source. Positions of bridges follow the written chain, without caps; N, C: chain ends. Non-standard residues stand in square brackets, D forms with d. Residues, ends and D or L forms follow the SMILES beside them. Sar = CNCC(=O)O

Key:
[1] = test system: classical complement pathway; test: In vitro haemolysis assay (inhibition of classical complement pathway); type: cell-based, human
Procedure, shortened: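 Serially diluted compound (9 points) was preincubated 15 min at room temperature with diluted human serum, titrated per batch to give 70-90% maximal haemolysis, in Tris/casein buffer pH 7.4 with Mg2+/Ca2+. Antibody-sensitized sheep erythrocytes were then added for 30 min at 37° C, and the reaction was stopped with EDTA. Haemolysis was read at A405, with IC50 from 4PL fit.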

[2] = Solubility test at 10 mg/mL (visual inspection and light scattering); type: physicochemical; settings: for Solubility, Condition 1 Acetate pH 4: 10 mg/mL compound in 100 mM acetate pH 4; for Solubility, Condition 2 Acetate pH 5: 10 mg/mL compound in 100 mM acetate pH 5; for Solubility, Condition 3 Phosphate pH 6: 10 mg/mL compound in 100 mM phosphate pH 6; for Solubility, Condition 4 Phosphate pH 7: 10 mg/mL compound in 100 mM phosphate pH 7; for Solubility, Condition 5 Phosphate pH 7.5: 10 mg/mL compound in 100 mM phosphate pH 7.5
Description: The solubility of compounds was assessed by measuring light scattering over a pH interval from pH 4 to pH 7.5.
Compounds were dissolved in a stock solution of 20 mg/mL in H2O at pH 2.5 or pH 10.
These stock solutions were diluted 1:1 with 200 mM buffered solution to reach a final solution of 10 mg/mL compound in 100 mM buffer. The 5 investigated conditions were (1) acetate pH 4.0, (2) acetate pH 5.0, (3) phosphate pH 6.0, (4) phosphate pH 7 and (5) phosphate pH 7.5.
Visual inspection included manually checking the 96 well plate for wells that are clear or non-clear. In addition to this a picture of the 96 well plate is taken.
Absorbance was measured at four wavelengths: 280 nm, 325 nm, 340 nm and 360 nm in an UV transparent 96 well microplate in a SpectraMax 190 microplate reader (Molecular Devices).
The criteria for this was a combination of visual inspection and light scattering not exceeding 0.1 AU, where values below 0.1 AU are good in visually clear samples. […]

[3] = Table 3, human serum, sensitized sheep red blood cells, read-out: IC50[nM], in vitro analysis of inhibition of hemolysis

Compound | IC50 [1, 3] [nM] | IC50 ([1]; Table 4, valine 3 versus isoleucine 3 pairs, read-out: CP hemolysis IC50) [nM] | Solubility, Condition 1 Acetate pH 4 [2] | Solubility, Condition 2 Acetate pH 5 [2] | Solubility, Condition 3 Phosphate pH 6 [2] | Solubility, Condition 4 Phosphate pH 7 [2] | Solubility, Condition 5 Phosphate pH 7.5 [2]
CC[C@H](C)[C@H](NC(=O)[C@H](C)NC(=O)[C@H](CO)NC(=O)CNC(=O)[C@H](CCC(=O)O)NC(C)=O)C(=O)N[C@H]1CSSC[C@@H](C(=O)N(C)CC(=O)N[C@@H](CCC(=O)O)C(N)=O)NC(=O)[C@H](CCCNC(=N)N)NC(=O)[C@H](Cc2c[nH]cn2)NC(=O)[C@H](CCC(=O)O)NC(=O)CNC(=O)[C@H](Cc2c[nH]c3ccccc23)NC(=O)[C@H](CC(=O)O)NC(=O)[C@H](CCC(N)=O)NC(=O)[C@H](Cc2c[nH]c3ccccc23)NC(=O)[C@H]([C@@H](C)CC)NC1=O [Compound 28] (Ac-EGSAICIWQDWGEHRC[Sar]E-NH2; disulfide 6-16) | < 100 | 88 | + (denotes solubility at the given condition, as determined by UV absorbance being less than 0.1 AU at 340 nm and the sample being clear when manually inspected.) | + (denotes solubility at the given condition, as determined by UV absorbance being less than 0.1 AU at 340 nm and the sample being clear when manually inspected.) | + (denotes solubility at the given condition, as determined by UV absorbance being less than 0.1 AU at 340 nm and the sample being clear when manually inspected.) | + (denotes solubility at the given condition, as determined by UV absorbance being less than 0.1 AU at 340 nm and the sample being clear when manually inspected.) | + (denotes solubility at the given condition, as determined by UV absorbance being less than 0.1 AU at 340 nm and the sample being clear when manually inspected.)
CC[C@H](C)[C@@H]1NC(=O)[C@@H](NC(=O)[C@@H](NC(=O)[C@H](CCC(=O)O)NC(=O)CNC(=O)[C@H](CCC(=O)O)NC(C)=O)[C@@H](C)CC)CSSC[C@@H](C(=O)N[C@H](C(N)=O)[C@@H](C)O)NC(=O)[C@H](CCCNC(=N)N)NC(=O)[C@H](Cc2c[nH]cn2)NC(=O)[C@H](CCC(=O)O)NC(=O)CNC(=O)[C@H](Cc2c[nH]c3ccccc23)NC(=O)[C@H](CC(=O)O)NC(=O)[C@H](CCC(N)=O)NC(=O)[C@H](Cc2c[nH]c3ccccc23)NC1=O [Compound 30] (Ac-EGEICIWQDWGEHRCT-NH2; disulfide 5-15) | < 100 |  | − (denotes lack of solubility at the given condition, as UV absorbance at 340 nm exceeds 0.1 AU and/or it is visibly turbid or contains particles.) | − (denotes lack of solubility at the given condition, as UV absorbance at 340 nm exceeds 0.1 AU and/or it is visibly turbid or contains particles.) | − (denotes lack of solubility at the given condition, as UV absorbance at 340 nm exceeds 0.1 AU and/or it is visibly turbid or contains particles.) | + (denotes solubility at the given condition, as determined by UV absorbance being less than 0.1 AU at 340 nm and the sample being clear when manually inspected.) | + (denotes solubility at the given condition, as determined by UV absorbance being less than 0.1 AU at 340 nm and the sample being clear when manually inspected.)
CC[C@H](C)[C@@H]1NC(=O)[C@@H](NC(=O)[C@@H](NC(=O)[C@H](CCC(=O)O)NC(=O)[C@H](CO)NC(=O)[C@H](CCC(=O)O)NC(C)=O)[C@@H](C)CC)CSSC[C@@H](C(=O)N[C@H](C(N)=O)[C@@H](C)O)NC(=O)[C@H](CCCNC(=N)N)NC(=O)[C@H](Cc2c[nH]cn2)NC(=O)[C@H](CCC(=O)O)NC(=O)CNC(=O)[C@H](Cc2c[nH]c3ccccc23)NC(=O)[C@H](CC(=O)O)NC(=O)[C@H](CCC(N)=O)NC(=O)[C@H](Cc2c[nH]c3ccccc23)NC1=O [Compound 31] (Ac-ESEICIWQDWGEHRCT-NH2; disulfide 5-15) | < 100 |  | + (denotes solubility at the given condition, as determined by UV absorbance being less than 0.1 AU at 340 nm and the sample being clear when manually inspected.) | + (denotes solubility at the given condition, as determined by UV absorbance being less than 0.1 AU at 340 nm and the sample being clear when manually inspected.) | + (denotes solubility at the given condition, as determined by UV absorbance being less than 0.1 AU at 340 nm and the sample being clear when manually inspected.) | + (denotes solubility at the given condition, as determined by UV absorbance being less than 0.1 AU at 340 nm and the sample being clear when manually inspected.) | + (denotes solubility at the given condition, as determined by UV absorbance being less than 0.1 AU at 340 nm and the sample being clear when manually inspected.)
CC[C@H](C)[C@@H]1NC(=O)[C@@H](NC(=O)[C@@H](NC(=O)[C@H](CCC(=O)O)NC(=O)[C@H](CO)NC(C)=O)[C@@H](C)CC)CSSC[C@@H](C(=O)N[C@H](C(=O)N[C@@H](CCC(=O)O)C(=O)N[C@@H](C)C(N)=O)[C@@H](C)O)NC(=O)[C@H](CCCNC(=N)N)NC(=O)[C@H](Cc2c[nH]cn2)NC(=O)[C@H](CCC(=O)O)NC(=O)CNC(=O)[C@H](Cc2c[nH]c3ccccc23)NC(=O)[C@H](CC(=O)O)NC(=O)[C@H](CCC(N)=O)NC(=O)[C@H](Cc2c[nH]c3ccccc23)NC1=O [Compound 32] (Ac-SEICIWQDWGEHRCTEA-NH2; disulfide 4-14) | < 100 |  | − (denotes lack of solubility at the given condition, as UV absorbance at 340 nm exceeds 0.1 AU and/or it is visibly turbid or contains particles.) | − (denotes lack of solubility at the given condition, as UV absorbance at 340 nm exceeds 0.1 AU and/or it is visibly turbid or contains particles.) | − (denotes lack of solubility at the given condition, as UV absorbance at 340 nm exceeds 0.1 AU and/or it is visibly turbid or contains particles.) | + (denotes solubility at the given condition, as determined by UV absorbance being less than 0.1 AU at 340 nm and the sample being clear when manually inspected.) | + (denotes solubility at the given condition, as determined by UV absorbance being less than 0.1 AU at 340 nm and the sample being clear when manually inspected.)
CC[C@H](C)[C@@H]1NC(=O)[C@@H](NC(=O)[C@@H](NC(=O)[C@H](CCC(=O)O)NC(C)=O)[C@@H](C)CC)CSSC[C@@H](C(=O)N[C@H](C(=O)N[C@@H](CCC(=O)O)C(N)=O)[C@@H](C)O)NC(=O)[C@H](CCCNC(=N)N)NC(=O)[C@H](Cc2c[nH]cn2)NC(=O)[C@H](CCC(=O)O)NC(=O)CNC(=O)[C@H](Cc2c[nH]c3ccccc23)NC(=O)[C@H](CC(=O)O)NC(=O)[C@H](CCC(N)=O)NC(=O)[C@H](Cc2c[nH]c3ccccc23)NC1=O [Compound 33] (Ac-EICIWQDWGEHRCTE-NH2; disulfide 3-13) | < 100 |  | − (denotes lack of solubility at the given condition, as UV absorbance at 340 nm exceeds 0.1 AU and/or it is visibly turbid or contains particles.) | − (denotes lack of solubility at the given condition, as UV absorbance at 340 nm exceeds 0.1 AU and/or it is visibly turbid or contains particles.) | + (denotes solubility at the given condition, as determined by UV absorbance being less than 0.1 AU at 340 nm and the sample being clear when manually inspected.) | + (denotes solubility at the given condition, as determined by UV absorbance being less than 0.1 AU at 340 nm and the sample being clear when manually inspected.) | + (denotes solubility at the given condition, as determined by UV absorbance being less than 0.1 AU at 340 nm and the sample being clear when manually inspected.)
CC[C@H](C)[C@@H]1NC(=O)[C@@H](NC(=O)[C@@H](NC(=O)[C@H](CCC(=O)O)NC(=O)[C@H](CO)NC(=O)[C@H](CCC(=O)O)NC(C)=O)[C@@H](C)CC)CSSC[C@@H](C(=O)N[C@@H](CCC(=O)O)C(=O)NCC(=O)N[C@@H](CCC(=O)O)C(N)=O)NC(=O)[C@H](CCCNC(=N)N)NC(=O)[C@H](Cc2c[nH]cn2)NC(=O)[C@H](CCC(=O)O)NC(=O)CNC(=O)[C@H](Cc2c[nH]c3ccccc23)NC(=O)[C@H](CC(=O)O)NC(=O)[C@H](CCC(N)=O)NC(=O)[C@H](Cc2c[nH]c3ccccc23)NC1=O [Compound 36] (Ac-ESEICIWQDWGEHRCEGE-NH2; disulfide 5-15) | < 250 |  | − (denotes lack of solubility at the given condition, as UV absorbance at 340 nm exceeds 0.1 AU and/or it is visibly turbid or contains particles.) | − (denotes lack of solubility at the given condition, as UV absorbance at 340 nm exceeds 0.1 AU and/or it is visibly turbid or contains particles.) | − (denotes lack of solubility at the given condition, as UV absorbance at 340 nm exceeds 0.1 AU and/or it is visibly turbid or contains particles.) | + (denotes solubility at the given condition, as determined by UV absorbance being less than 0.1 AU at 340 nm and the sample being clear when manually inspected.) | + (denotes solubility at the given condition, as determined by UV absorbance being less than 0.1 AU at 340 nm and the sample being clear when manually inspected.)
